In article PMC11312998, “Molecular Pro-Apoptotic Activities of Flavanone Derivatives in Cyclodextrin Complexes: New Implications for Anticancer Therapy” (International Journal of Molecular Sciences, 2024):
Read-outs that look alike come from different tables or passages of the source.

Legend:
Ishikawa = assay: MTT cytotoxicity assay; assay type: cell-based; details: Homo sapiens
Protocol: (§1) Cell viability was determined using the metabolic microplate spectrophotometric assay with Methylthiazolyl diphenyltetrazolium bromide (MTT), i.e., 3-(4,5-Dimethyl-2-thiazolyl)-2,5-diphenyl-2H-tetrazolium bromide (Sigma-Aldrich; St. Louis, MO, USA). The anticancer activity of the investigated compounds was evaluated in vitro on the basis of their ability to inhibit the proliferation of various cancer cells. The appropriate number of cells for a given cell line (6–8 × 10^3 cells/mL) were seeded into sterile, colorless 96-well microplates. After 24 h of culture, specific wells of the microplate were treated with test compounds (10–200 µmol/L concentration) and incubated in a CO2 incubator for 24 h. The medium was then removed, the cell monolayer was washed twice with sterile PBS solution and fresh culture medium was added to the wells of the microplate.
(§2) After 48 h of cell culture, the MTT test was conducted. In each well of the microplate, 50 µL of tetrazolium salt solution (final concentration 0.05 mg/mL) was added. The microplate was then placed in a CO2 incubator for 3–4 h (depending on the cell line). Following incubation, 100 µL of DMSO (dimethyl sulfoxide, Sigma-Aldrich, St. Louis, MO, USA) was added to the microplate wells to dissolve the purple formazan crystals formed in the environment of living cells. The absorbance of the formazan solution was read at a wavelength of λ = 580 nm and a reference wavelength of λ = 720 nm after gentle mixing (Biotek Power Wave HT, Biotek Instruments, Winooski, VT, USA).
The percentage of live cells was calculated by comparing the absorbance value of the tested samples with that of the control (cells not treated with compounds). Control absorbance was arbitrarily considered to be 100%. […]

MCF-7 = assay: MTT cytotoxicity assay; assay type: cell-based; details: Homo sapiens, MCF7, 24 h incubation, mean ± SEM, read-out: Cytotoxic effect, IC50
Protocol: as §1, §2
(§3) The percentage of live cells was calculated by comparing the absorbance value of the tested samples with that of the control (cells not treated with compounds). Control absorbance was arbitrarily considered to be 100%.
(§4) In order to determine the contribution of ROS to the cytotoxicity of the tested compounds, the cells were pre-incubated for 1 h with the antioxidant vitamin E (Trolox, Sigma-Aldrich; St. Louis, MO, USA). Cells were seeded into sterile, colorless 96-well microplates at a concentration of 6–8 × 10^3 cells/mL, depending on the cell line. After 24 h of culture, Trolox was added at a final concentration of 50 μM/well. After 1 h of incubation, the antioxidant was washed off, then appropriate concentrations of test compounds (10–200 µmol/L concentration) were added to fresh cell culture medium and incubated for 24 h. The MTT test was then performed under identical experimental conditions, as described in Section 3.1.2.

Hec-1-A = assay: MTT cytotoxicity assay; assay type: cell-based; details: Homo sapiens, 24 h incubation, mean ± SEM, read-out: Cytotoxic effect, IC50
Protocol: as §1, §2, §3, §4

HCC38 = assay: MTT cytotoxicity assay; assay type: cell-based; details: Homo sapiens, 24 h incubation, mean ± SEM, read-out: Cytotoxic effect, IC50
Protocol: as §1, §2, §3, §4

MDA-MB-231 [1] = assay: MTT cytotoxicity assay; assay type: cell-based; details: Homo sapiens, 24 h incubation, mean ± SEM, read-out: Cytotoxic effect, IC50
Protocol: as §1, §2, §3, §4

MDA-MB-231 [2] = assay: Superoxide anion generation, DHE probe; assay type: cell-based, human; details: IC50 concentration, 24 h
Protocol: The level of superoxide anion (O2^•−) was determined by microplate spectrofluorimetry with dihydroethidium (hydroethidine, DHE) (Life Technologies, Carlsbad, CA, USA), which is the most commonly used fluorogenic probe for monitoring the intracellular production of superoxide anion O2^•− [41]. […] Thanks to this shift, DHE can be used as a sensitive probe for cellular ROS. The reaction between superoxide and DHE generates a highly specific red fluorescent product, 2-hydroxyethidium (2-OH-E^+).
The cells were seeded in black 96-well fluorometric microplates at a density of 10 × 10^3 cells per well. […] After incubation, the medium was removed, the cell monolayer in the wells was washed twice with HBSS (140 mM NaCl, 5 mM KCl, 0.8 mM MgCl2, 1.8 mM CaCl2, 1 mM Na2HPO4, 10 mM HEPES and 1% glucose) and 50 μL of DHE solution in HBSS was added to each well (final probe concentration 5 μmol/L). Cells were incubated with the probe for 30 min in the dark in an incubator (37 °C), and then fluorescence was measured. The measurement was performed at the following excitation and fluorescence emission wavelengths: λex = 498 nm/λem = 582 nm. Fluorescence measurements were made on a Perkin-Elmer LS-5B spectrofluorometer (MA, USA). Fluorescence intensity values for control cells were arbitrarily set as 100%. The results are presented as percentages of control cell values, calculated relative to the fluorescence intensity of the controls (100%): sample fluorescence was calculated as Δf in relation to the controls.

[3] = MTT cytotoxicity assay, model of normal cells; assay type: cell-based; details: human, HMEC-1 cells (model of normal cells), 24 h incubation, mean ± SEM, read-out: Cytotoxic effect, IC50
Protocol: as §1, §2, §3

[4] = system: breast cancer cells (MCF-7, MDA-MB-231 and HCC38) and endometrial cancer cells (Ishikawa, Hec-1-A); assay: MTT cytotoxicity assay, summary over the cell lines; assay type: cell-based, human; details: Homo sapiens; range over the five cancer lines; read-out: IC50, range depending on the cancer line
Protocol: as §1, §2
The percentage of live cells was calculated by comparing the absorbance value of the tested samples with that of the control (cells not treated with compounds). Control absorbance was arbitrarily considered to be 100%. […] Moreover, cisplatin (Sigma-Aldrich, St. Louis, MO, USA) was used as a reference compound, and identical incubation conditions were used as described above.

[5] = Ishikawa vs HMEC-1, read-out: IC50 in Ishikawa lower than that for HMEC-1, difference
[6] = Ishikawa, 24 h incubation, mean ± SEM, read-out: Cytotoxic effect, IC50

SMILES | IC50 (Ishikawa; [5]) | IC50 (Ishikawa; [6]) | IC50 (MCF-7) | IC50 (Hec-1-A) | IC50 (HCC38) | IC50 (MDA-MB-231 [1]) | greater superoxide anion level relative to control (DHE probe) (MDA-MB-231 [2]) | IC50 at 24 h [3] | IC50 [4]
O=C1/C(=C/c2ccccc2)COc2ccccc21 [Compound 1] | ~10 µM | 10.2 ± 1.8 µM | 10.2 ± 0.9 µM | 18.5 ± 1.2 µM | 15.7 ± 0.8 µM | 12.6 ± 1.1 µM | approximately 20% | 21.2 ± 3.1 µM | 10 to 18 µM
COc1cccc(/C=C2/C(=O)c3ccccc3OC2c2ccccc2)c1 (stereo not drawn) [Compound 3] | ~10 µM | 15.2 ± 1.6 µM | 16.4 ± 2.3 µM | 26.9 ± 2.3 µM | 20.9 ± 1.5 µM | 15.2 ± 3.1 µM | approximately 20% | 24.1 ± 1.3 µM | 15 to 27 µM
O=C1/C(=C/c2ccccc2)C(c2ccccc2)Oc2ccccc21 (stereo not drawn) [Compound 5] | ~10 µM | 18.6 ± 4.4 µM | 25.1 ± 4.2 µM | 35.9 ± 2.4 µM | 25.6 ± 0.9 µM | 23.3 ± 1.4 µM | ~30% | 19.7 ± 3.7 µM | 18 to 36 µM
